Experiments:
A/M2 wt channel [1] = biological target: T1, A/M2 wt channel (Influenza A virus, UniProt P0DOF5); conditions: cited from earlier work
A/M2 wt channel [2] = biological target: T1, A/M2 wt channel; format: cell-based
[3] = test system: wt influenza virus (A/Udorn/72); format: cell-based
[4] = biological target: T2, transmembrane domain of wt A/M2 protein (M2TM, residues 22–46) (Influenza A virus, UniProt P0DOF5); format: binding; conditions: pH 7.4
T2 sequence (P0DOF5 22-46 limits assumed): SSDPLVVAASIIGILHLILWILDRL

T1 sequence (P0DOF5 whole entry): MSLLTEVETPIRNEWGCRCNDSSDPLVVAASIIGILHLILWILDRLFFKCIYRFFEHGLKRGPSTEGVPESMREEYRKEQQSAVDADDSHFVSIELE

| SMILES | dissociation rate constant (κoff) (A/M2 wt channel [1]) | voltage dependence of inhibition (A/M2 wt channel [2]) | reversal of inhibition in the time frame of 5 min (A/M2 wt channel [2]; pH 8.5) | concentrations at which plaque formation was inhibited [3] [µM] | second-order rate constant (κon) for association and inhibition (A/M2 wt channel [1]) [M⁻¹ s⁻¹] | Kd [4] [µM] | % remaining activity after application of 100 μM compound (A/M2 wt channel [2]) [%] | IC50 (A/M2 wt channel [2]; pH 5.5) [µM] | reversibility of inhibition / washout rate (A/M2 wt channel [2]; pH 8.5) | activity (A/M2 wt channel [2]; read-out: AM2 channel activity after 100μM compound inhibition) [%] |
| --- | --- | --- | --- | --- | --- | --- | --- | --- | --- | --- |
| NC12CC3CC(CC(C3)C1)C2 [Amantadine, amantadine] | 10^−4 s^−1 | voltage-independence | about 10% |  |  |  |  |  |  |  |
| C1CCC2(CC1)CCN(C1=NCCN1)CC2 [BL-1743, 2-[3-azaspiro([5],[5])undecanol]-2-imidazoline] | 10^−3 s^−1 | voltage-independence |  | 50 to 100 | 720 | 194 | 25.3±1.3 | 45.3 ± 3.92 | essentially fully reversible | 25 |
| NC1CCC2(CCCCC2)CC1 [Compound 8, spiro[5.5]undecan-3-amine] |  | voltage-independence |  |  |  |  |  |  | not significantly different from that of amantadine |  |
